Several values for one entry are separate records, joined by “and”; a condition that tells them apart may be missing. Identical values can stand only once.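 Five concentrations, 48 hours, 96-well plates. GI50 is the concentration that inhibits growth by half. TGI denotes the concentration required for complete inhibition of growth.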
Assays:
Assay in all cases: NCI-60 cell line screen, 48 h
CAKI-1 renal = system: CAKI-1 renal
CCRF-CEM leukemia = system: CCRF-CEM leukemia
HCC-2998 colon = system: HCC-2998 colon
K-562 leukemia = system: K-562 leukemia
MOLT-4 leukemia = system: MOLT-4 leukemia
OVCAR-5 ovarian = system: OVCAR-5 ovarian
OVCAR-8 ovarian = system: OVCAR-8 ovarian
SF-268 CNS = system: SF-268 CNS
SN12C renal = system: SN12C renal
TK-10 renal = system: TK-10 renal

| Compound | TGI (CAKI-1 renal) | TGI (CCRF-CEM leukemia) | TGI (HCC-2998 colon) | TGI (K-562 leukemia) | TGI (MOLT-4 leukemia) | TGI (OVCAR-5 ovarian) | TGI (OVCAR-8 ovarian) | TGI (SF-268 CNS) | TGI (SN12C renal) | TGI (TK-10 renal) | GI50 (CCRF-CEM leukemia) | GI50 (HCC-2998 colon) | GI50 (K-562 leukemia) | GI50 (MOLT-4 leukemia) | GI50 (TK-10 renal) | GI50 (CAKI-1 renal) [µM] | GI50 (OVCAR-5 ovarian) [µM] | GI50 (OVCAR-8 ovarian) [µM] | GI50 (SF-268 CNS) [µM] | GI50 (SN12C renal) [µM] |
| --- | --- | --- | --- | --- | --- | --- | --- | --- | --- | --- | --- | --- | --- | --- | --- | --- | --- | --- | --- | --- |
| CC(C)OC(=O)c1cc(NC(=S)OC(C)C)ccc1Cl | 35.3 µM | > 96.3 µM | > 57.5 µM | > 100 µM | > 79.2 µM | > 63.1 µM | > 64.8 µM | > 59.6 µM | 34.4 µM | 52.4 µM | – | – | – | – | – | – | – | – | – | – |
| CC1(O)CC2C(CC1SCc1ccccc1)C2(C)C (stereo not given) | 32 µM and 25.2 µM | > 100 µM and 42.2 µM | 50 µM and > 100 µM | > 100 µM and 32.1 µM | 25.1 µM and 47.7 µM | 40.4 µM and 31.8 µM | > 100 µM and 30.9 µM | 54.9 µM and 42 µM | 43 µM and 29.5 µM | > 100 µM and 34.1 µM | 37.4 µM and 14.8 µM | 24.1 µM and > 100 µM | 33.3 µM and 12.3 µM | 4.09 µM and 18.4 µM | 57.1 µM and 19.9 µM | – | – | – | – | – |
| c1ccc2[nH]c(-c3cscn3)nc2c1 | > 100 µM and 37.2 µM | > 100 µM | > 100 µM | > 100 µM | > 100 µM | > 100 µM | > 100 µM | > 100 µM | > 100 µM | > 100 µM | – | – | – | – | – | – | – | – | – | – |
| COc1cc(C(=O)Nc2ccc(-c3nc4ccccc4[nH]3)cc2)cc(OC)c1OC | 25.3 µM | 39.3 µM | 36.6 µM | 27.4 µM | 45.4 µM | 26.3 µM | 28.5 µM | 37.4 µM | 25.5 µM | 29.3 µM | 7.9 µM | 14.6 µM | 7.39 µM | 9.82 µM | 15.1 µM | 10.9 | 11.7 | 7.53 | 14.2 | 10.3 |
| NC(=O)N1N=C2c3ccccc3OC[C@H]2[C@@H]1c1ccccc1 | > 100 µM | > 100 µM | > 37.1 µM | > 100 µM | 97.2 µM | 72.1 µM | 27.2 µM | > 80.4 µM | > 100 µM | > 100 µM | – | – | – | – | – | – | – | – | – | – |
| COC(=O)c1sc(=S)c2sc(C(=O)OC)c(C(=O)OC)c2c1C(=O)OC | > 100 µM | 80.1 µM | 76.1 µM | > 100 µM | > 100 µM | > 100 µM | > 100 µM | > 100 µM | > 100 µM | 89.8 µM | 30.8 µM | 20.5 µM | 36.2 µM | 36.9 µM | 18.1 µM | 58.1 | 92.2 | 57.7 | 58.8 | 30.7 |
| Nc1nc2c([nH]1)c1[nH]c3ccccc3c1c1[nH]c3ccccc3c21 | 29.5 µM | 12.4 µM | 5.75 µM | 5.09 µM | 6.16 µM | 30 µM | 23.7 µM | 32.6 µM | 29.7 µM | 37.7 µM | 3.33 µM | 2.26 µM | 2.23 µM | 1.89 µM | 22.7 µM | 16 | 16.1 | 4.56 | 16.2 | 15.3 |
| COc1cc(/C=C/C(=O)/C=C/c2ccc(-n3ccnc3)cc2)ccc1O | 11.5 µM | 12.7 µM | 3.42 µM | > 100 µM | 42.8 µM | 33.9 µM | > 100 µM | 16.2 µM | 7.53 µM | 36.3 µM | 2.68 µM | 1.79 µM | 3.18 µM | 3.22 µM | 4.42 µM | 3.24 | 16.6 | 3.58 | 3.08 | 2.41 |
| COc1ccc([C@H]2c3[nH]c4ccccc4c3C[C@H]3C(=O)N(CCCCCCC(=O)NO)CC(=O)N23)cc1 | 13.9 µM | > 33.3 µM | 5.34 µM | > 33.3 µM | > 33.3 µM | > 33.3 µM | > 33.3 µM | > 33.3 µM | > 33.3 µM | 32.7 µM | 1.48 µM | 1.15 µM | 0.895 µM | 1.11 µM | 2.86 µM | 1.68 | 1.49 | 1.33 | 7.7 | 4.19 |
| COc1cc(OC)c(OC)cc1/C=C\c1ccnc2ccccc12 | > 79.5 µM | 67.8 µM | 17.8 µM | 31.3 µM | > 90.2 µM | > 100 µM | > 100 µM | > 86.2 µM | > 100 µM | 31.4 µM | – | – | – | – | – | – | – | – | – | – |

— PubChem BioAssay (NCI)
